Target: T1, TREK-2 Y315A (Homo sapiens, UniProt P57789, Y310A)
T1 construct: expressed in transfected cells; host or cells: HEK293 cells, transient transfection with pcDNA3
T1 sequence (P57789 1-543 isoform P57789-4 Y315A): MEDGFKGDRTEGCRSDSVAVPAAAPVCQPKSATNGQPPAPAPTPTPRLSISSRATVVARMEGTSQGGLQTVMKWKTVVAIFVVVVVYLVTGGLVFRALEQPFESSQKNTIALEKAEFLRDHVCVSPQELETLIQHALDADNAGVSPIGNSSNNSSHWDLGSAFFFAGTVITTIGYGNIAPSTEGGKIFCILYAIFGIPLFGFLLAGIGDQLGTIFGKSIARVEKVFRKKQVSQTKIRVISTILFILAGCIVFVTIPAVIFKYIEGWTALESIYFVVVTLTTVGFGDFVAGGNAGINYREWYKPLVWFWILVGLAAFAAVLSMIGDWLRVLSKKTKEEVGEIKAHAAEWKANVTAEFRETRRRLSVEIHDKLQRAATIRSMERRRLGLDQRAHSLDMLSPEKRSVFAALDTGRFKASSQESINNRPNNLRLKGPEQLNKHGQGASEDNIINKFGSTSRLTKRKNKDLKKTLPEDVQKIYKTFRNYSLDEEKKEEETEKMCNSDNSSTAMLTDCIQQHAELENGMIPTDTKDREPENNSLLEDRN
Experiment: Single-channel recordings of TREK-2 Y315A mutant in excised patches from HEK293 cells
Assay type: cell-based
Conditions: 10 µM NFx; before desensitization (effect dramatically reduced within ∼30 s)
Protocol: HEK293 cells were cultured in DMEM (Sigma) containing 10% FBS (Life Technologies), 3 mM glucose, and 2 mM glutamine at 37°C in a humidified atmosphere of 5% CO2/[…] at 37°C. Cells were transiently transfected with 0.2 µg channel pcDNA3 per dish using FuGENE 6 according to the manufacturer’s instructions. Cells were used 1–2 d after transfection.
For currents recorded in Xenopus laevis oocytes, giant-patch electrodes were pulled from thick-walled borosilicate glass and polished to give pipette resistances of ∼0.3–0.5 MΩ when filled with patch solution. […] Patches were perfused via a gravity-flow perfusion system and a HEKA EPC 10 USB single computer–controlled amplifier was used and currents recorded using a Patchmaster v2 × 90.5 (HEKA Electronics), filtered at 1 kHz, and sampled at 10 kHz. For currents recorded in HEK293 cells, patch electrodes were pulled from thick-walled borosilicate glass and polished to give pipette resistances of ∼3–5 MΩ when filled with patch solution. The currents were recorded from excised patches with both intracellular and extracellular solution containing 200 mM KCl and 10 mM HEPES (pH 6.0 with KOH). […] Data were acquired with pClamp and recorded using an Axopatch 200B (Molecular Devices), filtered at 5 kHz, and sampled at 200 kHz. Single-channel currents were analyzed in an identical manner to those obtained from bilayers (see above). […]

## NCCC(Oc1ccc(C(F)(F)F)cc1)c1ccccc1 (stereo not shown) [NFx, norfluoxetine]
  initial reduction of channel Po: > 90%

Source: PMC8155809 (The Journal of General Physiology, 2021)
